Values joined by “and” are separate entries in the source; they are usually repeats but may differ in a detail not shown here. Identical values can stand only once.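 Step 1: Grow cells in 96-well plates. Step 2: Expose to compound for 48 hours at 5 concentrations. Step 3: Interpolate endpoints linearly; if unreached, use highest concentration. At the GI50, growth is halved. The concentration for full growth arrest is given as TGI.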
Assays:
Assay in all cases: NCI anticancer screen, dose series, 48 h
CCRF-CEM leukemia = tested on: CCRF-CEM leukemia
COLO 205 colon = tested on: COLO 205 colon
HCC-2998 colon = tested on: HCC-2998 colon
HT29 colon = tested on: HT29 colon
MDA-N = tested on: MDA-N
MOLT-4 leukemia = tested on: MOLT-4 leukemia
NCI-H522 lung = tested on: NCI-H522 lung
SK-MEL-5 melanoma = tested on: SK-MEL-5 melanoma
SK-OV-3 ovarian = tested on: SK-OV-3 ovarian
SN12C renal = tested on: SN12C renal

Compound: Nc1nc(Cl)cc(NCC2(CO)CCC(CCc3ccccc3)C2)n1 (stereo not drawn)
- TGI (CCRF-CEM leukemia): 40.1 µM
- TGI (COLO 205 colon): 27.3 µM
- TGI (HCC-2998 colon): 33.8 µM
- TGI (HT29 colon): 21.4 µM
- TGI (MDA-N): 28.1 µM
- TGI (MOLT-4 leukemia): 11.7 µM
- TGI (NCI-H522 lung): 25.6 µM
- TGI (SK-MEL-5 melanoma): 15.6 µM
- TGI (SK-OV-3 ovarian): 35.1 µM
- TGI (SN12C renal): 31.1 µM

Compound: CCOC(=O)C1(C(=O)OCC)COS(=O)OC1
- TGI (CCRF-CEM leukemia): > 100 µM
- TGI (COLO 205 colon): 54.5 µM
- TGI (HCC-2998 colon): > 100 µM
- TGI (HT29 colon): > 100 µM
- TGI (MDA-N): > 100 µM
- TGI (MOLT-4 leukemia): 56.4 µM
- TGI (NCI-H522 lung): 2.1 µM
- TGI (SK-MEL-5 melanoma): > 100 µM
- TGI (SK-OV-3 ovarian): > 100 µM
- TGI (SN12C renal): > 100 µM

Compound: O=C(O)c1cc(-c2ccc3c(O)c(O)ccc3c2)ccc1O
- TGI (CCRF-CEM leukemia): 33.6 µM
- TGI (COLO 205 colon): > 75 µM
- TGI (HCC-2998 colon): > 75 µM
- TGI (HT29 colon): 42.5 µM
- TGI (MDA-N): > 75 µM
- TGI (MOLT-4 leukemia): 33.2 µM
- TGI (NCI-H522 lung): > 75 µM
- TGI (SK-MEL-5 melanoma): > 75 µM
- TGI (SK-OV-3 ovarian): > 75 µM
- TGI (SN12C renal): 30.8 µM

Compound: O=C(Nc1ccccc1F)c1cc2ccc(O)cc2oc1=Nc1ccccc1F
- TGI (CCRF-CEM leukemia): 3.79 µM
- TGI (COLO 205 colon): 61.7 µM
- TGI (HCC-2998 colon): 8.04 µM
- TGI (HT29 colon): 32.9 µM
- TGI (MDA-N): 5.27 µM
- TGI (MOLT-4 leukemia): 6.11 µM
- TGI (NCI-H522 lung): 3.09 µM
- TGI (SK-MEL-5 melanoma): 3.85 µM
- TGI (SK-OV-3 ovarian): 42.1 µM

Compound: ClC(Cl)=C1C(=C(Cl)Cl)C(Cl)(Cl)C1(Cl)Cl
- GI50 (CCRF-CEM leukemia): 0.334 µM
- TGI (CCRF-CEM leukemia): 1.5 µM
- TGI (COLO 205 colon): 10.8 µM
- TGI (HCC-2998 colon): 13.7 µM
- TGI (HT29 colon): 7.85 µM
- TGI (MDA-N): 2.81 µM
- GI50 (MOLT-4 leukemia): 0.278 µM
- TGI (MOLT-4 leukemia): 0.715 µM and 2 µM
- GI50 (NCI-H522 lung): 0.287 µM
- TGI (NCI-H522 lung): 0.304 µM
- TGI (SK-MEL-5 melanoma): 9.98 µM
- TGI (SK-OV-3 ovarian): 28.8 µM
- GI50 (SN12C renal): 0.774 µM
- TGI (SN12C renal): 2.13 µM

Compound: C[C@]12CC[C@@H]3c4ccc(O)cc4CC[C@H]3[C@@H]1C/C(=C\c1ccncc1)[C@@H]2O
- TGI (CCRF-CEM leukemia): > 100 µM
- TGI (COLO 205 colon): 19.8 µM
- TGI (HCC-2998 colon): 53 µM
- TGI (HT29 colon): > 100 µM
- TGI (MDA-N): > 100 µM
- TGI (MOLT-4 leukemia): 40.8 µM
- TGI (NCI-H522 lung): 20.1 µM
- TGI (SK-MEL-5 melanoma): 17.3 µM
- TGI (SK-OV-3 ovarian): > 100 µM
- TGI (SN12C renal): > 100 µM

Compound: CC(=O)c1cccn1/C=C(\OC(=O)OC(C)(C)C)c1ccc[nH]1
- TGI (CCRF-CEM leukemia): > 100 µM
- TGI (COLO 205 colon): > 100 µM
- TGI (HCC-2998 colon): > 100 µM
- TGI (MDA-N): > 100 µM
- TGI (MOLT-4 leukemia): > 100 µM
- TGI (NCI-H522 lung): > 100 µM
- TGI (SK-MEL-5 melanoma): > 100 µM
- TGI (SN12C renal): > 100 µM

Compound: Cc1cc(-c2nc3ccccc3s2)ccc1NC(=O)[C@@H](N)CCCCN
- TGI (CCRF-CEM leukemia): 22.5 µM
- TGI (COLO 205 colon): 24.8 µM
- TGI (HCC-2998 colon): 24.5 µM
- TGI (HT29 colon): 16.9 µM
- TGI (MDA-N): 9.75 µM
- TGI (MOLT-4 leukemia): 17.1 µM
- TGI (NCI-H522 lung): 19.2 µM
- TGI (SK-MEL-5 melanoma): 28 µM
- TGI (SK-OV-3 ovarian): 27.2 µM
- TGI (SN12C renal): 32.9 µM

Compound: C/C1=C\CC[C@@]2(C)O[C@@H]2C[C@@H](C2(C)CO2)CC/C(C)=C/CC1 (stereo partly drawn)
- TGI (CCRF-CEM leukemia): > 100 µM
- TGI (COLO 205 colon): 33.2 µM
- TGI (HCC-2998 colon): 39.2 µM
- TGI (HT29 colon): > 100 µM
- TGI (MDA-N): 69.7 µM
- TGI (MOLT-4 leukemia): > 100 µM
- TGI (NCI-H522 lung): 52.6 µM
- TGI (SK-MEL-5 melanoma): 47.1 µM
- TGI (SK-OV-3 ovarian): > 100 µM
- TGI (SN12C renal): 33.5 µM

Compound: COc1cc(-c2cc(=O)c3cc4c(=O)cc(-c5cc(OC)c(OC)c(OC)c5)oc4cc3o2)cc(OC)c1OC
- TGI (CCRF-CEM leukemia): > 100 µM
- TGI (COLO 205 colon): > 100 µM
- TGI (HCC-2998 colon): > 100 µM
- TGI (HT29 colon): > 100 µM
- TGI (MDA-N): > 100 µM
- TGI (MOLT-4 leukemia): > 100 µM
- TGI (NCI-H522 lung): > 85.8 µM
- TGI (SK-MEL-5 melanoma): > 100 µM
- TGI (SK-OV-3 ovarian): 41.4 µM
- TGI (SN12C renal): > 100 µM

Compound: COC(=O)c1c2c(cc3c1CCC3)CCC2
- TGI (CCRF-CEM leukemia): 53.3 µM
- TGI (COLO 205 colon): > 100 µM
- TGI (HCC-2998 colon): > 100 µM
- TGI (HT29 colon): > 100 µM
- TGI (MDA-N): > 100 µM
- TGI (MOLT-4 leukemia): > 100 µM
- TGI (NCI-H522 lung): > 100 µM
- TGI (SK-MEL-5 melanoma): 29.5 µM
- TGI (SK-OV-3 ovarian): > 100 µM
- TGI (SN12C renal): > 100 µM

Compound: O=C(CNc1c(Cl)cccc1Cl)NC1C=Cc2ccc(S(=O)(=O)Nc3c(Cl)cccc3Cl)cc2C1=O (stereo not drawn)
- TGI (CCRF-CEM leukemia): > 100 µM
- TGI (COLO 205 colon): > 100 µM
- TGI (HCC-2998 colon): > 100 µM
- TGI (HT29 colon): > 100 µM
- TGI (MDA-N): > 100 µM
- TGI (MOLT-4 leukemia): > 100 µM
- TGI (NCI-H522 lung): > 100 µM
- TGI (SK-OV-3 ovarian): > 100 µM
- TGI (SN12C renal): > 100 µM

Compound: Clc1ccc(CSCCc2ccncc2)cc1Cl
- TGI (CCRF-CEM leukemia): 44.7 µM
- TGI (COLO 205 colon): 27.2 µM
- TGI (HCC-2998 colon): 34.2 µM
- TGI (HT29 colon): 31.2 µM
- TGI (MDA-N): 46.5 µM
- TGI (MOLT-4 leukemia): 38.1 µM
- TGI (NCI-H522 lung): 33.8 µM
- TGI (SK-MEL-5 melanoma): 29.9 µM
- TGI (SK-OV-3 ovarian): 59.4 µM
- TGI (SN12C renal): 42.2 µM

Compound: C[C@@H](Cl)[C@H]1CCCN(Cc2ccc(Br)cc2)C1
- TGI (CCRF-CEM leukemia): > 12.5 µM
- TGI (COLO 205 colon): > 12.5 µM
- TGI (HCC-2998 colon): > 12.5 µM
- TGI (HT29 colon): > 12.5 µM
- TGI (MDA-N): > 12.5 µM
- TGI (MOLT-4 leukemia): > 12.5 µM
- TGI (NCI-H522 lung): > 12.5 µM
- TGI (SK-MEL-5 melanoma): > 12.5 µM
- TGI (SK-OV-3 ovarian): > 12.5 µM

Compound: CN(Cc1ccccc1)c1cc(=O)n(C)c(=O)[nH]1
- TGI (CCRF-CEM leukemia): > 100 µM
- TGI (COLO 205 colon): > 100 µM
- TGI (HCC-2998 colon): > 100 µM
- TGI (HT29 colon): > 100 µM
- TGI (MDA-N): > 100 µM
- TGI (MOLT-4 leukemia): > 100 µM
- TGI (NCI-H522 lung): > 100 µM
- TGI (SK-MEL-5 melanoma): > 100 µM
- TGI (SK-OV-3 ovarian): > 100 µM
- TGI (SN12C renal): > 100 µM

Compound: CSc1c(C#N)c(N)n(-c2ccc(C)cc2)c(=O)c1C#N
- TGI (CCRF-CEM leukemia): > 100 µM
- TGI (COLO 205 colon): > 100 µM
- TGI (HCC-2998 colon): > 100 µM
- TGI (HT29 colon): > 100 µM
- TGI (MDA-N): > 100 µM
- TGI (MOLT-4 leukemia): > 100 µM
- TGI (NCI-H522 lung): > 100 µM
- TGI (SK-MEL-5 melanoma): > 100 µM
- TGI (SK-OV-3 ovarian): > 100 µM
- TGI (SN12C renal): > 100 µM

Compound: O=c1[nH]cnc2c1ncn2[C@@H]1C[C@@H]1CO
- TGI (CCRF-CEM leukemia): > 100 µM
- TGI (COLO 205 colon): > 100 µM
- TGI (HCC-2998 colon): > 100 µM
- TGI (HT29 colon): > 100 µM
- TGI (MDA-N): > 100 µM
- TGI (MOLT-4 leukemia): > 100 µM
- TGI (NCI-H522 lung): > 100 µM
- TGI (SK-MEL-5 melanoma): > 100 µM
- TGI (SN12C renal): > 100 µM

Compound: Cc1ccc(CC[P+](=O)CCc2ccc(C)nc2)cn1
- TGI (CCRF-CEM leukemia): > 100 µM
- TGI (COLO 205 colon): > 100 µM
- TGI (HCC-2998 colon): > 100 µM
- TGI (HT29 colon): > 100 µM
- TGI (MDA-N): > 100 µM
- TGI (MOLT-4 leukemia): > 100 µM
- TGI (NCI-H522 lung): > 100 µM
- TGI (SK-MEL-5 melanoma): > 100 µM
- TGI (SK-OV-3 ovarian): > 100 µM
- TGI (SN12C renal): > 100 µM

Source: PubChem BioAssay (NCI)
